Measurements taken from paper PMC7216583 (Parasites & Vectors, 2020).
pEC50, pIC50, pKi: −log10 of the molar value. Where “and” joins values, the source holds several entries; their conditions need not be identical. Equal values may be shown once. Read-outs that look alike come from different tables or passages of the source.

Columns and labels:
[1] = system: Toxoplasma gondii RH-2F tachyzoites; assay: microbe, parasite or virus in culture; details: 72 h
HER2/ErbB2 = system: HER2/ErbB2; parameters: method as in S-inhibitor; details: ref S-inhibitor; cited from earlier work
Flt = system: Flt; parameters: method as in S-inhibitor; details: ref S-inhibitor; cited from earlier work
EGFR = system: EGFR; parameters: method as in S-inhibitor; details: ref S-inhibitor; cited from earlier work
VEGFR2 = system: VEGFR2; parameters: method as in S-inhibitor; details: ref S-inhibitor; cited from earlier work
CB2 = target: CB2; parameters: method as in S-inhibitor; details: ref S-inhibitor; cited from earlier work
CDK5/p35 = details: read-out: IC50, CDK5/p35; ref S-inhibitor; cited from earlier work
CDK6/Cyclin D3 = details: read-out: IC50, CDK6/Cyclin D3; ref S-inhibitor; cited from earlier work
CDK4/cyclin D1 = details: read-out: IC50, CDK4/Cyclin D1; ref S-inhibitor; cited from earlier work
CDK3/Cyclin E = details: read-out: IC50, CDK3/Cyclin E; ref S-inhibitor; cited from earlier work
CDK1/cyclin B = system: CDK1/cyclin B; parameters: method as in S-inhibitor; details: ref S-inhibitor; cited from earlier work
S6K = system: S6K; parameters: method as in S-inhibitor; details: ref S-inhibitor; cited from earlier work
Akt3 = system: Akt3; parameters: method as in S-inhibitor; details: ref S-inhibitor; cited from earlier work
Akt1 = system: Akt1; parameters: method as in S-inhibitor; details: ref S-inhibitor; cited from earlier work
Akt2 = system: Akt2; parameters: method as in S-inhibitor; details: ref S-inhibitor; cited from earlier work
MEK1 = system: MEK1; parameters: method as in library vendor description; details: ref library vendor description; cited from earlier work
Ron = system: Ron; parameters: method as in S-inhibitor; details: ref S-inhibitor; cited from earlier work
Tyro3 = system: Tyro3; parameters: method as in S-inhibitor; details: ref S-inhibitor; cited from earlier work
c-Met = system: c-Met; parameters: method as in S-inhibitor; details: ref S-inhibitor; cited from earlier work
in vitro = details: human, Host viability (%) mean
HCV NS5A = system: HCV NS5A; parameters: method as in S-inhibitor; details: ref S-inhibitor; cited from earlier work
hSGLT2 = details: read-out: EC50, hSGLT2; ref S-inhibitor; cited from earlier work
[2] = target: PLK1 (Polo-like kinase 1); parameters: method as in S-inhibitor; details: ref S-inhibitor; cited from earlier work
[3] = target: T. brucei Aurora kinase-1 (TbAUK1); parameters: method as in S-inhibitor; details: ref S-inhibitor; cited from earlier work
Aurora B = system: Aurora B; parameters: method as in S-inhibitor; details: ref S-inhibitor; cited from earlier work
PDGFRα = system: PDGFRα; parameters: method as in S-inhibitor; details: ref S-inhibitor; cited from earlier work
VEGFR1 = system: VEGFR1; parameters: method as in S-inhibitor; details: ref S-inhibitor; cited from earlier work
PDGFRβ = system: PDGFRβ; parameters: method as in S-inhibitor; details: ref S-inhibitor; cited from earlier work
ATM = system: ATM; parameters: method as in S-inhibitor; details: ref S-inhibitor; cited from earlier work
p38 MAPK = system: p38 MAPK; parameters: method as in S-inhibitor; details: ref S-inhibitor; cited from earlier work
BACE1 = system: BACE1; parameters: method as in S-inhibitor; details: two values given; ref S-inhibitor; cited from earlier work
Aβ secretion = system: Aβ secretion; parameters: method as in S-inhibitor; details: ref S-inhibitor; read-out: EC50, decrease of Aβ secretion; cited from earlier work
HSP90β = system: HSP90β; parameters: method as in S-inhibitor; details: ref S-inhibitor; cited from earlier work
CDK2 = system: CDK2; parameters: method as in S-inhibitor; details: ref S-inhibitor; cited from earlier work
CDK5 = system: CDK5; parameters: method as in S-inhibitor; details: ref S-inhibitor; cited from earlier work
CDK7 = system: CDK7; parameters: method as in S-inhibitor; details: ref S-inhibitor; cited from earlier work
PDPK1 = target: PDPK1; parameters: method as in S-inhibitor; details: ref S-inhibitor; cited from earlier work
PI3Kγ = details: read-out: IC50, PI3Kγ; ref S-inhibitor; cited from earlier work
[4] = system: LPS-induced TNF-α release; parameters: method as in S-inhibitor; details: ref S-inhibitor; cited from earlier work
some cell lines = system: some cell lines; parameters: method as in S-inhibitor; details: ref S-inhibitor; cited from earlier work
v-Abl = system: v-Abl; parameters: method as in library vendor description; details: ref library vendor description; cited from earlier work
[5] = system: HCV NS3-4A serine protease; parameters: method as in S-inhibitor; details: ref S-inhibitor; cited from earlier work
Tie2 = system: Tie2; parameters: method as in S-inhibitor; details: ref S-inhibitor; cited from earlier work
PuSA = system: PuSA; parameters: method as in S-inhibitor; details: ref S-inhibitor; cited from earlier work
Aminopeptidase N = target: Aminopeptidase N; parameters: method as in S-inhibitor; details: ref S-inhibitor; cited from earlier work
LAP = system: LAP; parameters: method as in S-inhibitor; details: ref S-inhibitor; cited from earlier work
CFTR = system: CFTR; parameters: method as in S-inhibitor; details: ref S-inhibitor; cited from earlier work
MEK5 = system: MEK5; parameters: method as in S-inhibitor; details: ref S-inhibitor; cited from earlier work
[6] = system: Toxoplasma gondii RH-2F tachyzoites; details: preliminary screen, mean
[7] = read-out: Parasite inhibition (%) mean, preliminary screen, mean
[8] = read-out: Parasite inhibition (%) mean

## CCN1CCN(Cc2ccc(-c3cc4c(N[C@H](C)c5ccccc5)ncnc4[nH]3)cc2)CC1 [AEE788 (NVP-AEE788)]
[1]; [7]
  inhibition of growth at 5 µM: -2.1%
HER2/ErbB2
  pIC50: 8.22
Flt
  pIC50: 7.23
EGFR
  pIC50: 8.70
VEGFR2
  pIC50: 7.11

## CN1CCCCC1Cn1cc(C(=O)c2cc([N+](=O)[O-])ccc2I)c2ccccc21 (stereo not shown) [AM-1241]
[1]; [7]
  inhibition of growth at 5 µM: -8.8%
CB2
  pKi: 8.47

## O=C(NC1CCNCC1)c1[nH]ncc1NC(=O)c1c(Cl)cccc1Cl [AT7519]
CDK5/p35
  pIC50: 7.89
[1]; [7]
  inhibition of growth at 5 µM: -11.7%
CDK6/Cyclin D3
  pIC50: 6.77
CDK4/cyclin D1
  pIC50: […]
CDK3/Cyclin E
  pIC50: 6.44
CDK1/cyclin B
  pIC50: […]

## Clc1ccc(C2(c3ccc(-c4cn[nH]c4)cc3)CCNCC2)cc1 [AT7867]
S6K
  pIC50: 7.07
Akt3
  pIC50: 7.33
[1]; [7]
  inhibition of growth at 5 µM: 46.4%
Akt1
  pIC50: 7.49
Akt2
  pIC50: 7.77

## Cn1cnc2c(F)c(Nc3ccc(Br)cc3Cl)c(C(=O)NOCCO)cc21 [AZD6244 (Selumetinib)]
MEK1
  pIC50: 7.85
[1]; [7]
  inhibition of growth at 5 µM: 0.6%

## CCOc1ccn(-c2ccc(F)cc2)c(=O)c1C(=O)Nc1ccc(Oc2ccnc(N)c2Cl)c(F)c1 [BMS 777607]
Ron
  pIC50: 8.74
Tyro3
  pIC50: 8.37
[1]; [7]
  inhibition of growth at 5 µM: 80.6%
c-Met
  pIC50: 8.41
In vitro
  viability at 72 h: 72%

## COC(=O)N[C@H](C(=O)N1CCC[C@H]1c1ncc(-c2ccc(-c3ccc(-c4cnc([C@@H]5CCCN5C(=O)[C@@H](NC(=O)OC)C(C)C)[nH]4)cc3)cc2)[nH]1)C(C)C [Daclatasvir (BMS-790052)]
HCV NS5A
  pEC50: 10.30 to 11.05
[1]; [7]
  inhibition of growth at 5 µM: 3.9%

## CCOc1ccc(Cc2cc([C@@H]3O[C@H](CO)[C@@H](O)[C@H](O)[C@H]3O)ccc2Cl)cc1 [Dapagliflozin]
[1]; [8]
  inhibition of growth at 5 µM: 1.9%
hSGLT2
  pEC50: 8.96

## COc1ccc(S(=O)(=O)N(C(C)=O)c2ccccc2/C=C/c2cc[n+]([O-])cc2)cc1 [HMN-214]
[1]; [7]
  inhibition of growth at 5 µM: -11.6%
[2]
  pIC50: 6.93

## CCS(=O)(=O)Nc1ccc2c(c1)/C(=C(/Nc1ccc(CN3CCCCC3)cc1)c1ccccc1)C(=O)N2 [Hesperadin]
[1]; [7]
  inhibition of growth at 5 µM: 66.8%
[3]
  pIC50: 7.40
Aurora B
  pIC50: 6.60

## CCCNC(=O)Nc1ccc(Oc2ncnc3cc(OC)c(OC)cc23)cc1Cl [KRN 633]
PDGFRα
  pIC50: 6.02
[1]; [7]
  inhibition of growth at 5 µM: 73.8%
VEGFR1
  pIC50: 6.77
PDGFRβ
  pIC50: 5.01
VEGFR2
  pIC50: 6.80
In vitro
  viability at 72 h: 70.6%

## C[C@@H]1CN(CC(=O)Nc2ccc3c(c2)Cc2cccc(-c4cc(=O)cc(N5CCOCC5)o4)c2S3)C[C@H](C)O1 [KU-60019]
[1]; [7]
  inhibition of growth at 5 µM: 2%
ATM
  pIC50: 8.20

## CC(C)(C)Cn1c(N)nc2ccc(-c3[nH]c(C(C)(C)C)nc3-c3ccc(F)cc3)nc21 [LY2228820]
p38 MAPK
  pIC50: 8.15
[1]; [7]
  inhibition of growth at 5 µM: -12.7%

## C[C@@]1(c2cc(-c3cncnc3)c(F)cc2F)CCSC(N)=N1 [LY2811376]
[1]; [7]
  inhibition of growth at 5 µM: -19.7%
BACE1
  pIC50: […]
Aβ secretion
  pEC50: ~6.52

## CCNC(=O)c1cc2c(-c3cc(OCCN4CCCC4)c(Cl)cc3Cl)nc(N)nc2s1 [NVP-BEP800]
[1]; [8]
  inhibition of growth at 5 µM: 0.7%
HSP90β
  pIC50: 7.24

## CC(C)CC(=O)Nc1[nH]nc2c1CN(C(=O)C1CCN(C)CC1)C2(C)C [PHA-793887]
CDK2
  pIC50: 8.10
[1]; [7]
  inhibition of growth at 5 µM: 0.6%
CDK5
  pIC50: 8.30
CDK7
  pIC50: 8.00

## CCCCCCCCCCCCc1ccc(S(=O)(=O)Nc2nncs2)cc1 [PHT-427]
[1]; [7]
  inhibition of growth at 5 µM: 35.7%
PDPK1
  pKi: 5.28

## CC(=O)Nc1nc(C)c(-c2ccc(Cl)c(S(=O)(=O)NCCO)c2)s1 [PIK-93]
[1]; [8]
  inhibition of growth at 5 µM: 1.5%
PI3Kγ
  pIC50: […]

## Nc1cccc2c1C(=O)N(C1CCC(=O)NC1=O)C2=O (stereo not shown) [Pomalidomide]
[1]; [7]
  inhibition of growth at 5 µM: 0.8%
[4]
  pIC50: 7.89

## C#CCC(Cc1cnc2nc(N)nc(N)c2n1)c1ccc(C(=O)N[C@@H](CCC(=O)O)C(=O)O)cc1 (stereo partly shown) [Pralatrexate (Folotyn)]
Some cell lines
  pIC50: > 6.52
[1]; [7]
  inhibition of growth at 5 µM: 20.4%

## CN1CCN(CCOc2cc(OC3CCOCC3)c3c(Nc4c(Cl)ccc5c4OCO5)ncnc3c2)CC1 [Saracatinib (AZD0530)]
v-Abl
  pIC50: 7.52
[1]; [7]
  inhibition of growth at 5 µM: 32.6%

## CCC[C@H](NC(=O)[C@H]1[C@H]2CCC[C@H]2CN1C(=O)[C@@H](NC(=O)[C@@H](NC(=O)c1cnccn1)C1CCCCC1)C(C)(C)C)C(=O)C(=O)NC1CC1 [Telaprevir (VX-950)]
[1]; [7]
  inhibition of growth at 5 µM: 4.4%
[5]
  pIC50: 6.46

## COc1ccc2cc(-c3[nH]c(-c4ccc([S+](C)[O-])cc4)nc3-c3ccncc3)ccc2c1 (stereo not shown) [Tie2 kinase inhibitor]
[1]; [7]
  inhibition of growth at 5 µM: 13%
Tie2
  pIC50: 6.60

## CC(C)C[C@@H](C(=O)N[C@H](C(=O)OC1CCCC1)c1ccccc1)[C@H](O)C(=O)NO [Tosedostat (CHR2797)]
PuSA
  pIC50: 6.82
[1]; [7]
  inhibition of growth at 5 µM: 85.6%
Aminopeptidase N
  pIC50: 6.66
In vitro
  viability at 72 h: 88.8%
LAP
  pIC50: 7.00

## Cc1ccc(NC(=O)C2(c3ccc4c(c3)OC(F)(F)O4)CC2)nc1-c1cccc(C(=O)O)c1 [VX-809]
[1]; [7]
  inhibition of growth at 5 µM: 9.4%
CFTR
  pEC50: 7.00

## BIX 02188
MEK5
  pIC50: 8.37
[6]
  Parasite inhibition (%) mean: 13.7%
